Laboratory results published in PubChem BioAssay AID1985 (Southern Research Specialized Biocontainment Screening …, 2009).
Several values for one entry are separate records, joined by “and”; a condition that tells them apart may be missing. Equal values may be shown once.

test system: S. Typhi PhoP-promoter GFP reporter, fluorescence, 4 h; assay: modified counter assay using GFP fluorescence, PhoP regulon inhibitor project, dose response (AID 1985)

First: CC1CCC(C(C)C)C(OC(=O)Cn2c(COc3ccccc3)[n+](C)c3ccccc32)C1 (centres undefined)
Second: O=C(CC1NCCc2ccccc21)Nc1ccc(Oc2ccccc2)cc1 (centres undefined)
The IC50 of the first is 1.6-fold lower: 51.5 µM for the first, 79.9 µM for the second. The first is the more potent here.

Nc1nc2ccccc2n1CCOc1ccccc1Cl and Nc1nc(Nc2ccccc2)nc2ccccc12 are within 1.5-fold of each other in IC50: 63.1 µM for the first, 56.2 µM for the second.

Compared with Cc1cc(C)c(OCCCCNCc2ccccc2)c(Cl)c1, Cc1cc(Br)ccc1OCCCCNCCO is 1.8-fold lower in IC50: 113 µM for the first, 61.8 µM for the second. The second is the more potent here.

Going from O=C(Nc1cccc(Cl)c1)Nc1nccs1 to O=C(Nc1nnc(-c2ccccn2)o1)c1cccc(Cl)c1, the IC50 rises from 55.3 µM to 107 µM (1.9-fold). The first is the more potent here.

N=c1c2c(n(Cc3ccc(Cl)cc3Cl)c3c1CCC3)CCCC2 and N=c1c2c(n(Cc3ccc(Cl)c(Cl)c3)c3c1CCC3)CCCC2 are within 1.5-fold of each other in IC50: 80.7 µM for the first, 80.1 µM for the second.

O=C(CCc1ccccc1)NNC(=O)c1ccccn1 and O=C(NC(=S)NNC(=O)c1ccco1)c1ccc(Br)cc1 are within 1.5-fold of each other in IC50: 101 µM for the first, 69 µM for the second.

Going from C/C(=N\N=C(N)N)c1ccc(Cl)c(Cl)c1 to Nc1nc(N)c(Cc2ccc(Cl)cc2Cl)c(N)n1, the IC50 rises from 51.5 µM to 103 µM (2-fold). The first is the more potent here.

O=C(CCN1CCOCC1)c1ccc(Br)cc1 and Cc1cc(OCCCCCN2CCCC2)ccc1Cl are within 1.5-fold of each other in IC50: 129 µM for the first, 112 µM for the second.

CN1CCN(CCCN2c3ccccc3Sc3ccc(C(F)(F)F)cc32)CC1 and CN(C)CC/C=C1\c2ccccc2Sc2ccc(Cl)cc21 are within 1.5-fold of each other in IC50: 124 µM for the first, 98.5 µM for the second.

COc1ccc(N2C3=C(CC4=C2CC(C)(C)CC4=O)C(=O)CC(C)(C)C3)cc1 and COc1ccc(-c2cnc(NCc3cc4c(cc3[N+](=O)[O-])OCO4)n2C)cc1 are within 1.5-fold of each other in IC50: 146 µM for the first, 107 µM for the second.

Going from CCCCN(CCCC)C(=O)c1cn(CC)c2cc(N3CCN(C)CC3)c(F)cc2c1=O to CCn1cc(C(=O)O)c(=O)c2cc(F)c(N3CCN(C(=O)Nc4ccccc4)CC3)cc21, the IC50 rises from 7.43 µM to 21.1 µM (2.8-fold). The first is the more potent here.

Compared with COc1cc(/C=C2/C(=O)NN(c3ccc(C)c(Cl)c3)C2=O)cc([N+](=O)[O-])c1O, COc1cc([N+](=O)[O-])cc(/C=N/NC(=O)C(C)Nc2cccc(C)c2)c1O (centres undefined) is 1.5-fold higher in IC50: 46.6 µM for the first, 71.6 µM for the second. The first is the more potent here.

CCOC(=O)C1Nc2c(F)cc(C)cc2C2c3ccccc3CC12 (centres undefined) and CC(C)C1N=C(c2ccc3c(c2)OCO3)CC(c2ccccc2O)N1 (centres undefined) are within 1.5-fold of each other in IC50: 136 µM for the first, 121 µM for the second.

First: CCCCCCCCNc1ncnc2ccccc12
Second: Cc1ccc(Nc2nc(NCCO)c3ccccc3n2)cc1C
The IC50 of the first is 2.3-fold lower: 35.8 µM for the first, 80.8 µM for the second.

Compared with O=[N+]([O-])c1cc(/C=N/Nc2nc3ccccc3[nH]2)c(O)cc1O, O=C(N/N=C/c1cc([N+](=O)[O-])ccc1O)c1cccc2cc[nH]c12 is 3.7-fold higher in IC50: 24.8 µM for the first, 91.6 µM for the second. The first is the more potent here.

First: NC1CCN(c2c(F)cc3c(=O)c(C(=O)O)cn(C4CC4)c3c2Cl)C1 (centres undefined)
Second: CCn1cc(C(=O)O)c(=O)c2cc(F)c(N3CCN(C(=S)Nc4ccccc4OC)CC3)cc21
The IC50 of the first is lower: less than 0.23 µM for the first, 6.7 µM for the second. The first is the more potent here.

CC(C(=O)c1ccc(-c2ccccc2)cc1)[n+]1cccc(NC(=O)c2ccccc2)c1 (centres undefined) and O=C(CN1CC[n+]2c(-c3cccs3)csc21)c1ccc(-c2ccccc2)cc1 are within 1.5-fold of each other in IC50: 36.3 µM for the first, 33.7 µM for the second.

Cc1[nH]cnc1C(=O)N/N=C/c1ccc([N+](=O)[O-])s1 and Cc1ccc(C(=O)N/N=C\c2ccc([N+](=O)[O-])s2)cn1 are within 1.5-fold of each other in IC50: 20.6 µM for the first, 20 µM for the second.

C=CC1=C(C(=O)O)N2C(=O)[C@@H](NC(=O)/C(=N\O)c3csc(N)n3)[C@H]2SC1 (stereo in doubt) and O=[N+]([O-])c1cc(Cl)cc(/C=N/NC(=S)Nc2ccc(S(=O)(=O)N3CCOCC3)cc2)c1O are within 1.5-fold of each other in IC50: 34.6 µM for the first, 46.3 µM for the second.

Compared with CC[n+]1c(/C=C/N(C)c2ccccc2)n(-c2ccccc2)c2ccc(-c3nc4ccccc4s3)cc21, CCc1ccc(-c2nn(-c3ccccc3)cc2CSC(=N)N)cc1 is 3.8-fold higher in IC50: 8.97 µM for the first, 34.1 µM for the second. The first is the more potent here.

COc1cc2c(cc1OC)[C@H](Cc1ccc(O)cc1)NCC2 and Oc1ccc(C[C@@H]2CNCCN2CCCCC2CCCCC2)cc1 are within 1.5-fold of each other in IC50: 87 µM for the first, 74.3 µM for the second.

Compared with OC(CNCCc1ccccc1)COc1ccc(OCC(O)CNCCc2ccccc2)cc1 (centres undefined), CCc1ccc(CNCc2ccc(OCC(O)CN(C)Cc3ccccc3)cc2)nc1 (centres undefined) is 6.9-fold higher in IC50: 21.2 µM for the first, 146 µM for the second. The first is the more potent here.

First: Cc1cccc(C(=O)NNC(=S)NC(=O)c2cccs2)c1
Second: CC(=O)Nc1cccc(NC(=O)Nc2ccc(F)cc2F)c1
The IC50 of the first is 2.3-fold lower: 50.1 µM for the first, 114 µM for the second. The first is the more potent here.

Going from CCC(C)N1CCC2(CC1)N=c1c(c3c4c5c(C)c(O)c3c(O)c1=NC(=O)C(C)=CC=C[C@H](C)[C@H](O)[C@@H](C)[C@@H](O)[C@@H](C)[C@H](OC(C)=O)[C@H](C)[C@@H](OC)C=CO[C@@](C)(O5)C4=O)N2 (some centres undefined) to COc1nccnc1NS(=O)(=O)c1ccc(N=Cc2c(C)[nH]n(-c3ccc(C)c(C)c3)c2=O)cc1, the IC50 rises from 9.09 µM to 114 µM (13-fold). The first is the more potent here.

Compared with O=C(N/N=C/c1ccccc1O)C1SCCCS1, O=C(N/N=C/c1ccc([N+](=O)[O-])s1)c1ccccc1Br is 3-fold lower in IC50: 82.7 µM for the first, 27.7 µM for the second. The second is the more potent here.

Cc1ccc(C(=O)N/N=C\c2sccc2C)cn1 and Cc1cc(NC(=O)c2ccc3[nH]c(C)c(C)c3c2)ccn1 are within 1.5-fold of each other in IC50: 128 µM for the first, 144 µM for the second.

First: Cc1cc2nc(C3CCN(CC4COc5ccccc5O4)CC3)[nH]c2cc1C (centres undefined)
Second: Cc1cc(NC2CCCCC2)nc(NCc2ccccc2)n1
The IC50 of the first is 5.1-fold lower: 15.2 µM for the first, 77.9 µM for the second. The first is the more potent here.

First: CNc1nc(SC)n(C)c(=O)c1N=O
Second: O=Nc1c(O)c2ccccc2c2ccccc12
The IC50 of the first is 3.3-fold higher: 80.3 µM for the first, 24.6 µM for the second.

Going from O=C(C[n+]1cc(Br)cc2ccccc21)c1ccc(Cl)cc1 to O=C(CSc1nnc(-c2cccnc2)n1Cc1ccco1)c1ccc2ccccc2c1, the IC50 falls from 57.8 µM to less than 0.23 µM.

Going from Nc1ncncc1-c1ccc(Cl)cc1 to C(=N\Nc1ccccn1)/c1cccnc1, the IC50 falls from 131 µM to 37.5 µM (3.5-fold).

First: Nc1ncn(C2O[C@H](CO)[C@@H](O)[C@H]2O)c(=O)n1 (some centres undefined)
Second: C/C(=C\C(=O)OCCCCCCCCC(=O)O)C[C@@H]1OC[C@H](C[C@@H]2O[C@H]2[C@@H](C)[C@H](C)O)[C@@H](O)[C@H]1O
The IC50 of the first is 1.7-fold lower: 10.1 µM for the first, 17.5 µM for the second.

CCCCCCCCCCCCCCCC[N+](C)(C)CCN(Cc1ccc(OC)cc1)c1ncccn1 and CCCCCN=C(N)N/N=C/c1c[nH]c2ccc(OC)cc12 are within 1.5-fold of each other in IC50: 23.9 µM for the first, 35.6 µM for the second.

CCN1CCCC1CNC(=O)c1cc2cc(F)ccc2[nH]1 (centres undefined) and N/C(=N\N=C/c1ccc(F)cc1)N/N=C\c1ccc(F)cc1 are within 1.5-fold of each other in IC50: 91 µM for the first, 75.1 µM for the second.

CN(C)CC/C=C1\c2ccccc2Sc2cc(F)c(Cl)cc21 and Cc1ccc(-c2ccccc2NC(=O)CS(=O)CC(=O)Nc2ccc(C)c(Cl)c2)o1 (centres undefined) are within 1.5-fold of each other in IC50: 65.4 µM for the first, 46.5 µM for the second.

C#CCOCCOCCOCCNc1nc(N2CCN(C(=O)[C@H](Cc3cc4ccccc4[nH]3)n3cc([C@@H](N)C(C)CC)nn3)CC2)nc(N2CCN(C(=O)[C@H](Cc3cc4ccccc4[nH]3)n3cc([C@@H](N)Cc4ccc(O)cc4)nn3)CC2)n1 (some centres undefined) and Cc1ccc(C(=O)N/C(=C\c2ccc(-c3ccc(Br)cc3)o2)C(=O)NCCCN(C)C)cc1 are within 1.5-fold of each other in IC50: 60 µM for the first, 66.3 µM for the second.

Going from COc1ccc(Cl)cc1S(=O)(=O)N1CCN(C(=O)c2ccco2)CC1 to O=[N+]([O-])c1cccc(NNS(=O)(=O)c2ccccc2F)c1, the IC50 falls from 145 µM to 8.04 µM (18-fold).

Going from COc1ccc(NC(=O)c2[nH]ncc2[N+](=O)[O-])cc1 to O=C(Nc1cccc(NC(=O)c2ccccc2Cl)c1)c1ccc([N+](=O)[O-])o1, the IC50 falls from 40.3 µM to 17.5 µM (2.3-fold).

First: CCC(C)(C)c1ccc(OCCCC[n+]2ccccc2)c(C(C)(C)CC)c1
Second: O=S1(=O)Nc2c(ccc3cccnc23)-c2ccccc21
The IC50 of the first is 58-fold higher: 67.9 µM for the first, 1.17 µM for the second. The second is the more potent here.

Clc1ccc(C(c2ccc(Cl)cc2)n2cc[n+](CC(OCc3ccc(Cl)cc3Cl)c3ccc(Cl)cc3Cl)c2)cc1 (centres undefined) and O=C(Cc1ccc([N+](=O)[O-])cc1)N/N=C/c1ccc([N+](=O)[O-])o1 are within 1.5-fold of each other in IC50: 15 µM for the first, 13.1 µM for the second.

With c1cnc2c(c1)ccc1cccnc12 the IC50 was 33.7 µM and 131 µM.
